HELM strings list units from the 5' end as sugar, base in round brackets, then linkage (d deoxyribose, r ribose, m 2'-O-methyl, p phosphodiester). Strings are as the collection lists them; they lack the last nucleoside at the 3' end of the tested compound. [moe] = 2'-O-(2-methoxyethyl) (MOE); [sp] = phosphorothioate linkage; [m5C] = 5-methylcytosine

This series addresses UBE3A-ATS. Put plainly: mouse, dose not given. The note with it: ASO.
“RNA1{[moe](G)[sp].[moe](T)p.[moe](G)p.[moe](T)p.[moe](T)p.[moe](T)p.d(T)[sp].d(T)[sp].d([m5C])[sp].d([m5C])[sp].d(A)[sp].d(T)[sp].d(T)[sp].d(T)[sp].d(T)[sp].d(T)[sp].[moe]([m5C])p.[moe](T)[sp].[moe]([m5C])}$$$$ (last 3' nucleoside missing)” displayed a 3 h FOB score of 0 score 0-7. The same measure for “RNA1{[moe](T)[sp].[moe]([m5C])p.[moe](T)p.[moe]([m5C])p.[moe](G)p.d(G)[sp].d(G)[sp].d(T)[sp].d(A)[sp].d(T)[sp].d(A)[sp].d(T)[sp].d(A)[sp].d(A)[sp].d(A)[sp].[moe](T)p.[moe](T)p.[moe](A)[sp].[moe](A)}$$$$ (last 3' nucleoside missing)”: 0 score 0-7; for “RNA1{[moe](G)[sp].[moe](T)p.[moe](G)p.[moe](G)p.[moe](T)p.d(T)[sp].d(T)[sp].d([m5C])[sp].d([m5C])[sp].d(A)[sp].d(G)[sp].d([m5C])[sp].d(A)[sp].d(G)[sp].d(G)[sp].[moe](G)p.[moe](T)p.[moe](G)[sp].[moe](T)}$$$$ (last 3' nucleoside missing)”: 5.8 score 0-7. The same measure for “RNA1{[moe](T)[sp].[moe](G)p.[moe](A)p.[moe](G)p.[moe]([m5C])p.d(T)[sp].d(A)[sp].d(T)[sp].d([m5C])[sp].d(T)[sp].d(G)[sp].d(T)[sp].d(A)[sp].d([m5C])[sp].d(A)[sp].[moe](A)p.[moe](A)p.[moe](A)[sp].[moe](T)}$$$$ (last 3' nucleoside missing)”: 6.2 score 0-7; for “RNA1{[moe]([m5C])[sp].[moe](A)p.[moe](G)p.[moe](T)p.[moe](A)p.d(G)[sp].d(T)[sp].d(G)[sp].d(G)[sp].d(T)[sp].d(A)[sp].d(T)[sp].d([m5C])[sp].d(A)[sp].d(A)[sp].[moe](A)p.[moe](T)p.[moe]([m5C])[sp].[moe](T)}$$$$ (last 3' nucleoside missing)”: 6.2 score 0-7. To “RNA1{[moe](G)[sp].[moe](A)p.[moe](T)p.[moe]([m5C])p.[moe](A)p.[moe]([m5C])[sp].d(A)[sp].d(T)[sp].d(T)[sp].d(A)[sp].d([m5C])[sp].d([m5C])[sp].d([m5C])[sp].d(A)[sp].[moe](T)p.[moe]([m5C])[sp].[moe]([m5C])}$$$$ (last 3' nucleoside missing)” belongs 0 score 0-7. On to “RNA1{[moe](A)[sp].[moe](G)p.[moe]([m5C])p.[moe]([m5C])p.[moe](A)p.[moe](G)[sp].d(G)[sp].d(T)[sp].d(G)[sp].d(T)[sp].d([m5C])[sp].d(T)[sp].d(T)[sp].d(A)[sp].[moe](T)p.[moe](A)[sp].[moe](T)}$$$$ (last 3' nucleoside missing)”, for which the 3 h FOB score came to 0 score 0-7. The same measure for “RNA1{[moe](T)[sp].[moe](G)p.[moe]([m5C])p.[moe](T)p.[moe]([m5C])[sp].d(A)[sp].d(G)[sp].d(T)[sp].d(T)[sp].d(A)[sp].d(G)[sp].d(G)[sp].d(T)[sp].[moe](T)p.[moe](A)p.[moe](G)[sp].[moe](T)}$$$$ (last 3' nucleoside missing)”: 6.3 score 0-7; for “RNA1{[moe](A)[sp].[moe](G)p.[moe]([m5C])p.[moe](T)p.[moe]([m5C])p.d(A)[sp].d([m5C])[sp].d(T)[sp].d(G)[sp].d(A)[sp].d(A)[sp].d(A)[sp].d(G)[sp].d(A)[sp].d([m5C])[sp].[moe](A)p.[moe]([m5C])p.[moe](A)[sp].[moe](A)}$$$$ (last 3' nucleoside missing)”: 5 score 0-7; for “RNA1{[moe](T)[sp].[moe]([m5C])p.[moe](A)p.[moe](T)p.[moe](G)p.d(T)[sp].d(G)[sp].d([m5C])[sp].d(A)[sp].d(T)[sp].d(A)[sp].d([m5C])[sp].d([m5C])[sp].d([m5C])[sp].d(A)[sp].[moe](G)p.[moe](G)p.[moe](G)[sp].[moe](T)}$$$$ (last 3' nucleoside missing)”: 1 score 0-7. Take “RNA1{[moe](T)[sp].[moe](G)p.[moe](G)p.[moe](G)p.[moe](T)p.d(T)[sp].d(A)[sp].d([m5C])[sp].d(T)[sp].d(T)[sp].d(T)[sp].d([m5C])[sp].d([m5C])[sp].d(A)[sp].d(A)[sp].[moe](T)p.[moe](A)p.[moe](G)[sp].[moe](A)}$$$$ (last 3' nucleoside missing)”: the 3 h FOB score came out at 5.7 score 0-7. For “RNA1{[moe](G)[sp].[moe]([m5C])p.[moe](A)p.[moe](T)p.[moe](G)p.d(T)[sp].d(G)[sp].d(G)[sp].d(G)[sp].d([m5C])[sp].d([m5C])[sp].d(T)[sp].d([m5C])[sp].d(T)[sp].d(A)[sp].[moe](T)p.[moe](T)p.[moe](A)[sp].[moe](A)}$$$$ (last 3' nucleoside missing)”, the 3 h FOB score worked out at 4 score 0-7.

On to “RNA1{[moe](G)[sp].[moe](T)p.[moe](G)p.[moe](A)p.[moe](G)p.[moe]([m5C])[sp].d(T)[sp].d(A)[sp].d(T)[sp].d([m5C])[sp].d(T)[sp].d(G)[sp].d(T)[sp].d(A)[sp].[moe]([m5C])p.[moe](A)[sp].[moe](A)}$$$$ (last 3' nucleoside missing)”, for which the 3 h FOB score is 4.7 score 0-7. With “RNA1{[moe](T)[sp].[moe](T)p.[moe]([m5C])p.[moe](T)p.[moe](T)p.d(G)[sp].d([m5C])[sp].d(T)[sp].d(G)[sp].d(A)[sp].d(T)[sp].d([m5C])[sp].d(A)[sp].d([m5C])[sp].d(A)[sp].[moe](T)p.[moe](T)p.[moe](A)[sp].[moe]([m5C])}$$$$ (last 3' nucleoside missing)”, the 3 h FOB score was 0 score 0-7.

In turn, “RNA1{[moe](G)[sp].[moe](T)p.[moe](A)p.[moe](A)p.[moe](G)p.d(A)[sp].d(G)[sp].d(T)[sp].d(T)[sp].d(A)[sp].d(G)[sp].d([m5C])[sp].d(T)[sp].d(A)[sp].d(T)[sp].[moe](T)p.[moe]([m5C])p.[moe]([m5C])[sp].[moe]([m5C])}$$$$ (last 3' nucleoside missing)” showed a 3 h FOB score of 4 score 0-7.

In turn, “RNA1{[moe](T)[sp].[moe](G)p.[moe](A)p.[moe](G)p.[moe]([m5C])[sp].d(T)[sp].d(A)[sp].d(T)[sp].d([m5C])[sp].d(T)[sp].d(G)[sp].d(T)[sp].d(A)[sp].[moe]([m5C])p.[moe](A)p.[moe](A)[sp].[moe](A)}$$$$ (last 3' nucleoside missing)” displayed a 3 h FOB score of 4.7 score 0-7. For “RNA1{[moe](G)[sp].[moe](G)p.[moe](G)p.[moe](A)p.[moe](T)p.d(T)[sp].d(T)[sp].d(A)[sp].d([m5C])[sp].d([m5C])[sp].d([m5C])[sp].d(A)[sp].d(T)[sp].d(T)[sp].d(G)[sp].[moe]([m5C])p.[moe](A)p.[moe](A)[sp].[moe](G)}$$$$ (last 3' nucleoside missing)”, the 3 h FOB score is 1 score 0-7. To “RNA1{[moe](G)[sp].[moe](T)p.[moe](G)p.[moe]([m5C])p.[moe](A)[sp].d(T)[sp].d(A)[sp].d([m5C])[sp].d([m5C])[sp].d([m5C])[sp].d(A)[sp].d(G)[sp].d(G)[sp].[moe](G)p.[moe](T)p.[moe](A)[sp].[moe](G)}$$$$ (last 3' nucleoside missing)” belongs 5.5 score 0-7.

For the substance “RNA1{[moe]([m5C])[sp].[moe](A)p.[moe](A)p.[moe]([m5C])p.[moe](T)p.d(T)[sp].d([m5C])[sp].d(A)[sp].d(T)[sp].d([m5C])[sp].d(A)[sp].d(A)[sp].d(T)[sp].d(A)[sp].d(T)[sp].[moe](T)p.[moe](T)p.[moe]([m5C])[sp].[moe]([m5C])}$$$$ (last 3' nucleoside missing)”, the 3 h FOB score is 1 score 0-7. The same measure for “RNA1{[moe](A)[sp].[moe](G)p.[moe](T)p.[moe](G)p.[moe](T)p.d([m5C])[sp].d(A)[sp].d(T)[sp].d(A)[sp].d(T)[sp].d(G)[sp].d(T)[sp].d(A)[sp].d(G)[sp].d([m5C])[sp].[moe](A)p.[moe](A)p.[moe](T)[sp].[moe](T)}$$$$ (last 3' nucleoside missing)”: 4 score 0-7. The same measure for “RNA1{[moe](T)[sp].[moe]([m5C])p.[moe](A)p.[moe](G)p.[moe](T)p.d(T)[sp].d(A)[sp].d(G)[sp].d(G)[sp].d(T)[sp].d(T)[sp].d(A)[sp].d(G)[sp].d(T)[sp].d(G)[sp].[moe]([m5C])p.[moe](A)p.[moe]([m5C])[sp].[moe](A)}$$$$ (last 3' nucleoside missing)”: 5 score 0-7. “RNA1{[moe]([m5C])[sp].[moe](T)p.[moe](G)p.[moe]([m5C])p.[moe](T)p.[moe]([m5C])p.d(A)[sp].d(G)[sp].d(T)[sp].d(T)[sp].d(A)[sp].d(G)[sp].d(G)[sp].d(T)[sp].d(T)[sp].d(A)[sp].[moe](G)p.[moe](T)[sp].[moe](G)}$$$$ (last 3' nucleoside missing)” yielded a 3 h FOB score of 3 score 0-7. The same measure for “RNA1{[moe](G)[sp].[moe]([m5C])p.[moe](A)p.[moe](T)p.[moe](A)p.d([m5C])[sp].d([m5C])[sp].d([m5C])[sp].d(A)[sp].d(G)[sp].d(G)[sp].d(G)[sp].d(T)[sp].d(A)[sp].d(G)[sp].[moe](G)p.[moe](A)p.[moe](T)[sp].[moe](T)}$$$$ (last 3' nucleoside missing)”: 3 score 0-7; for “RNA1{[moe](G)[sp].[moe](G)p.[moe](T)p.[moe]([m5C])p.[moe](A)p.d(T)[sp].d([m5C])[sp].d(T)[sp].d([m5C])[sp].d(G)[sp].d(G)[sp].d(G)[sp].d(T)[sp].d(A)[sp].d(T)[sp].[moe](A)p.[moe](T)p.[moe](A)[sp].[moe](A)}$$$$ (last 3' nucleoside missing)”: 4.2 score 0-7; for “RNA1{[moe](G)[sp].[moe](G)p.[moe](T)p.[moe](A)p.[moe](T)p.d(T)[sp].d(G)[sp].d(A)[sp].d([m5C])[sp].d(A)[sp].d([m5C])[sp].d([m5C])[sp].d(T)[sp].d([m5C])[sp].d([m5C])[sp].[moe](A)p.[moe](A)p.[moe]([m5C])[sp].[moe](T)}$$$$ (last 3' nucleoside missing)”: 5 score 0-7. With “RNA1{[moe](G)[sp].[moe](G)p.[moe](G)p.[moe](T)p.[moe](A)p.d(T)[sp].d(T)[sp].d(G)[sp].d([m5C])[sp].d(T)[sp].d(G)[sp].d(T)[sp].d([m5C])[sp].d([m5C])[sp].d(A)[sp].[moe](A)p.[moe](A)p.[moe](T)[sp].[moe](G)}$$$$ (last 3' nucleoside missing)”, the 3 h FOB score came to 6.8 score 0-7.

The values are drawn from the OligoGym collection.
